Data taken from US9365598B2, “Phosphine derivatives of fluorescent compounds” (Pierce Biotechnology, Inc., priority 2011, dated 2016).

What was measured:
[1] = Thermal stress stability of the compounds, purity by HPLC before and after storage; type: physicochemical; conditions: unit size 1 mg; for Purity Before thermal stress: packed under argon, HPLC before storage; for Purity After thermal stress: under argon, stored at 50° C. for 14 days, HPLC
Description: The inventive compounds were evaluated for stability compared to commercial dyes. All compounds were packed under argon as 1 mg portions in plastic vials. The vials were sealed under argon with a drying pad in an aluminium coated pouch, and then stored at 50° C. for 14 days. The results of the stability study for selected compounds are shown below where the determination of purity was by HPLC before and after storage.

[2] = test system: mouse IgG immunoglobulin; experiment: Functional plate assay of compound-PEG4-GAM conjugates (RFU); type: binding; conditions: conjugates at 4 μg/ml on mouse IgG coated plates; FIGS. 13-14
Description: Performance of compound-GAM conjugates and compound-GAR conjugates was evaluated in a functional assay. Wells of a 96 white opaque plate were coated with target proteins mouse IgG immunoglobulin or rabbit IgG immunoglobulin. One hundred μl mouse or rabbit IgG at a concentration of 10 μg/ml was applied to the corresponding wells in columns 1 and 2. The target proteins were serially diluted 1:1 from the wells in columns 2 to 11 using 100 μl PBS. One hundred μl of samples from the wells in column 11 were discarded. One hundred μl PBS was added to the wells in column 12. The plates were incubated overnight at 4° C. and then blocked 2×200 μl with Thermo Scientific SuperBlock® Blocking Buffer. […] The plates were washed with 2×200 μl with PBS-Tween and 1×200 μl with PBS and filled with PBS buffer (100 μl/well) prior to scanning on Tecan Safire using 562 nmexcitation/576 nmemission to detect fluorescence intensity and DyLight 649 and DyLight 650 plated were measured using 654 nmexcitation/673 nmemission.
As shown in FIGS. 13-14, the fluorescence intensity, also termed the RFU, was compared for compound-PEG4-GAM conjugates where the compound was DyLight 549-phosphine (blue; FIG. 13), 550 Compound 1-phosphine (red; FIG. 13), DyLight 649-phosphine (red; FIG. 14) and 650 Compound 1-phosphine (blue; FIG. 14) at various concentrations. […]

[3] = test system: A549 cells; experiment: Azido-sugar cell labeling, A549 cells; type: cell-based, human; conditions: N-azidoacetyl galactosamine, 100 μM dye-phosphine 3 h 37° C.
Source text: (§1) The inventive and commercial compounds were examined in cell labeling experiments using azido-sugars and adenocarcinomic human alveolar basal epithelial (A549) cells, human osteosarcoma (U2OS) cells, and immortalized proximal tubule epithelial (HK2) cells. As is known in the art, introduction of labeled sugar moieties results in incorporation of the labeled sugar moieties in various cellular molecules and locations.
Metabolically incorporated azido-labeled sugars, N-azidoacetyl galactosamine, N-azidoacetyl glucosamine, and N-azidoacetyl mannosamine was detected in vivo. Cells were incubated with 40 μM azido-sugar in cell culture media for 72 hours and the live cells were incubated with 100 μM of dye-labeled phosphine. The cells were then washed, fixed with 4% paraformaldehyde and counterstained with Hoechst 33342 which labels nuclei. For fixed cells, the cells were incubated with the azido-sugar, fixed with 4% paraformaldehyde, permeabilized with 0.1% Triton X-100, and incubated with 100 μM of dye-labeled phosphine. […]
Fluorescence intensity was measured in each spot identified using a specific Bio-Application with the ArrayScanVTI image analysis software. […]

[4] = test system: U2OS cells; experiment: Azido-sugar cell labeling, U2OS cells; type: cell-based, human; conditions: 100 μM dye-phosphine
Source text: as §1
Metabolically incorporated azido-labeled sugars, N-azidoacetyl galactosamine, N-azidoacetyl glucosamine, and N-azidoacetyl mannosamine was detected in vivo. Cells were incubated with 40 μM azido-sugar in cell culture media for 72 hours and the live cells were incubated with 100 μM of dye-labeled phosphine. The cells were then washed, fixed with 4% paraformaldehyde and counterstained with Hoechst 33342 which labels nuclei. For fixed cells, the cells were incubated with the azido-sugar, fixed with 4% paraformaldehyde, permeabilized with 0.1% Triton X-100, and incubated with 100 μM of dye-labeled phosphine. In live cell labeling using the phosphine labeling reaction used 100 μM of the dye-labeled phosphine for three hours at 37° C., and the CLICK-iT® labeling reaction, using DIBO-Alexa dye, used 30 μM of the DIBO Alexa dye for one hour at room temperature (RT). […]

[5] = test system: HK2 cells; experiment: Azido-sugar cell labeling, HK2 cells; type: cell-based; conditions: 100 μM dye-phosphine
Source text: as §1
Metabolically incorporated azido-labeled sugars, N-azidoacetyl galactosamine, N-azidoacetyl glucosamine, and N-azidoacetyl mannosamine was detected in vivo. Cells were incubated with 40 μM azido-sugar in cell culture media for 72 hours and the live cells were incubated with 100 μM of dye-labeled phosphine. The cells were then washed, fixed with 4% paraformaldehyde and counterstained with Hoechst 33342 which labels nuclei. For fixed cells, the cells were incubated with the azido-sugar, fixed with 4% paraformaldehyde, permeabilized with 0.1% Triton X-100, and incubated with 100 μM of dye-labeled phosphine. In live cell labeling using the phosphine labeling reaction used 100 μM of the dye-labeled phosphine for three hours at 37° C., and the CLICK-iT® labeling reaction, using DIBO-Alexa dye, used 30 μM of the DIBO Alexa dye for one hour at room temperature (RT). In fixed cell labeling, the phosphine labeling reaction used 100 μM of the dye-labeled phosphine for three hours at 37° C., and the CLICK-IT® labeling reaction, using DIBO-Alexa dye, used 50 μM of the DIBO Alexa dye for one hour at RT in the presence of 5 μM copper for one hour at RT in the absence of copper.
HK2 cells, either live (column A) or fixed (column B), were labeled with N-azidoacetyl galactosamine followed by labeling with 550 Compound 1-phosphine (row 1), 650 Compound 1-phosphine (row 2), or Copperless CLICK-iT® using DIBO-Alexa647 (row 3), as shown in FIG. 52. A graphical representation of the spot average intensity for the images of FIG. 52 is shown for labeling live (FIG. 53) and fixed (FIG. 54) cells. […]

[6] = test system: A549 cell lysate; experiment: A549 cell lysate labeling with azido-sugars, SDS-PAGE; type: cell-based, human
Description: The inventive and commercial compounds were examined in A549 cell lysate labeling experiments using azido-sugars. Cell extracts were prepared from A549 incubated with azido-sugar N-azidoacetylgalactosamine […], N-azidoacetylglucosamine (GlcNAz) or N-azidoacetylmannosamine […]. The cell extracts were incubated with either 550 Compound 1-phosphine, 650 Compound 1-phosphine, CLICK-iT® Alexa555-Alkyne, or CLICK-iT® Alexa Fluor 647 DIBO Alkyne and analyzed by SDS-PAGE. The resulting lysates were separated by electrophoresis. 10 μg protein was loaded onto a PAGE gel (4-12% Bis-Tris gel).
The resulting lysates were separated by electrophoresis. […]
FIGS. 63-64 graphically represent band intensity of FIGS. 61-62. […] Relative fluorescence intensity for the gel image of FIG. 61 comparing Alexa555 (copper) and 550 Compound 1-phosphine (FIG. 63) and for the gel image of FIG. 62 comparing Alexa647 (copper-less) and 650 Compound 1-phosphine (FIG. 64).

[7] = test system: secretory vesicles in HK2, A549, and U2OS cells; experiment: Secretory vesicle labeling with Az-ManNAc; type: cell-based; conditions: N-azidoacetyl mannosamine; co-localized with PGP9.5
Source text: The inventive and commercial compounds were used to label secretory vesicles in various cell types using azido-sugars. […] Co-localization of Man-650 Compound 1-phosphine, and this labeling was co-localized with PGP9.5, a secreted protein, as shown in FIGS. 65B and 66B (red arrows).

2-((1E,3E,5E)-5-(1-(6-(2-(3-(diphenylphosphino)-4-(methoxycarbonyl)benzamido)ethylamino)-6-oxohexyl)-3-methyl-5-sulfonato-3-(3-sulfonatopropyl)indolin-2-ylidene)penta-1,3-dienyl)-1-(2-methoxyethyl)-3-methyl-3-(3-sulfonatopropyl)-3H-indolium-5-sulfonate [650 Compound 1-phosphine]
Purity Before thermal stress [1]: 97%
Purity After thermal stress [1]: 96%
fluorescence intensity (RFU) of compound-PEG4-GAM conjugates compared with DyLight 549 / DyLight 649 conjugate [2]: similar
live cell labeling (spot average intensity) versus Alexa647-DIBO CLICK-iT [3]: better than Alexa647-DIBO CLICK-iT® labeling
live cell labeling (spot average intensity) versus Alexa647-DIBO CLICK-iT ([4]; N-azidoacetyl glucosamine): better than Alexa647-DIBO CLICK-iT® labeling
live cell labeling (spot average intensity) versus Alexa647-DIBO CLICK-iT ([4]; N-azidoacetyl mannosamine): better than Alexa647-DIBO CLICK-iT® labeling
live cell labeling (spot average intensity) versus Alexa647-DIBO CLICK-iT ([5]; N-azidoacetyl galactosamine): better than Alexa647-DIBO CLICK-iT® labeling
live cell labeling (spot average intensity) versus Alexa647-DIBO CLICK-iT ([5]; N-azidoacetyl glucosamine): better than Alexa647-DI BO CLICK-iT® labeling
live cell labeling (spot average intensity) versus Alexa647-DIBO CLICK-iT ([5]; N-azidoacetyl mannosamine): better than Alexa647-DIBO CLICK-iT® labeling
labeling pattern of lysate on gel ([6]; A549 lysates with Az-GalNAc, Az-GlcNAc or Az-ManNAc, FIG. 62): different labeling pattern for each of the three incorporated azido-sugars
secretory vesicle labeling [7]: resulted in labeling of secretory vesicles

2-((1E,3E)-3-(1-(6-(2-(3-(diphenylphosphino)-4-(methoxycarbonyl)benzamido)ethylamino)-6-oxohexyl)-3-methyl-5-sulfonato-3-(3-sulfonatopropyl)indolin-2-ylidene)prop-1-enyl)-1-(2-methoxyethyl)-3-methyl-3-(3-sulfonatopropyl)-3H-indolium-5-sulfonate [550 Compound 1-phosphine]
Purity Before thermal stress [1]: 96%
Purity After thermal stress [1]: 96%
fluorescence intensity (RFU) of compound-PEG4-GAM conjugates compared with DyLight 549 / DyLight 649 conjugate [2]: similar
band intensity of labeled lysate versus CLICK-iT Alexa 555-alkyne ([6]; A549 lysates, three azido-sugars, 10 μg protein per lane, FIG. 63): better than CLICK-iT® Alexa 555-alkyne
